Results from article PMC12543283, “TastepepAI: An artificial intelligence platform for taste peptide de novo design” (PLOS Computational Biology, 2025).
Where “and” joins values, the source holds several entries; their conditions need not be identical. Equal entries are not always repeated. Ends that are not written are not given here.

Tests used:
[1] = Electronic tongue analysis (Taste-Sensing System SA 402B); parameters: unit not given here; conditions: reference solution 30 mM KCl + 0.3 mM tartaric acid as baseline, first measurement excluded; for Umami: sensor AAE; for Umami / Bitter / Sweet: detection threshold 0, room temperature; for Umami / Bitter / Sour / Salty: four replicates; for Sour: detection threshold -13, room temperature; for Salty: detection threshold -6, room temperature; for Sweet: measured five times
Method in brief: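 Room-temperature electronic-tongue readings with five taste probes, calibrated against a reference of 30 mM KCl and 0.3 mM tartaric acid. Samples at 0.1 mg/mL and 1.0 mg/mL were measured four times, sweetness five times, and the first run was dropped. Detection cut-offs were sour −13, salty −6, others 0.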

[2] = tested on: human pancreatic ductal epithelial cells (HPNE)
[3] = tested on: human bronchial epithelial cells (BEAS-2B)
Procedure: (§1) The cytotoxicity of 73 synthetic peptides was evaluated using four human cell lines: human pancreatic ductal epithelial cells (HPNE), human embryonic kidney cells (HEK293T), human umbilical vein endothelial cells (HUVEC), and human bronchial epithelial cells (BEAS-2B). When cell density reached 70% confluence, the complete culture medium was replaced with serum-free maintenance medium, and peptides were added at a final concentration of 100 μM for 36 h. Control groups received only serum-free maintenance medium without peptides. Cell proliferation was assessed using the CCK-8 assay kit (Solarbio, CA1210) according to the manufacturer’s instructions.

[4] = tested on: human embryonic kidney cells (HEK293T)
[5] = tested on: human umbilical vein endothelial cells (HUVEC)
Procedure: as §1

Row | Substance | Umami ([1]; peptide 0.1 mg/mL) | Umami ([1]; peptide 1 mg/mL) | Bitter ([1]; sensor C00, peptide 0.1 mg/mL) | Bitter ([1]; sensor C00, peptide 1 mg/mL) | Sour ([1]; sensor CA0, peptide 0.1 mg/mL) | Sour ([1]; sensor CA0, peptide 1 mg/mL) | Salty ([1]; sensor CT0, peptide 0.1 mg/mL) | Salty ([1]; sensor CT0, peptide 1 mg/mL) | Sweet ([1]; sensor GL1, peptide 0.1 mg/mL) | Sweet ([1]; sensor GL1, peptide 1 mg/mL) | Average cell viability, HPNE [2] | Cell viability, HPNE, Data1 [2] | Cell viability, HPNE, Data2 [2] | Cell viability, HPNE, Data3 [2] | Average cell viability, BEAS-2B [3] | Cell viability, BEAS-2B, Data1 [3] | Cell viability, BEAS-2B, Data2 [3] | Cell viability, BEAS-2B, Data3 [3] | Average cell viability, HEK293T [4] | Cell viability, HEK293T, Data1 [4] | also measured
1 | ILEEQ [TaPep29] | 1.81 | -4.08 | 7.69 | 3.20 | -3.61 | 10.60 | -20.79 | 9.53 | 7.74 | -5.49 | 96.81 | 101.03 | 96.44 | 92.95 | 114.56 | 114.56 | 111.96 | 117.15 | 100.41 | 100.88 | Cell viability, HEK293T, Data2 [4]: 96.44; Cell viability, HEK293T, Data3 [4]: 103.91; Average cell viability, HUVEC [5]: 98.96; Cell viability, HUVEC, Data1 [5]: 93.24; Cell viability, HUVEC, Data2 [5]: 109.93; Cell viability, HUVEC, Data3 [5]: 93.72
2 | KADGNR [TaPep4] | 1.35 | -5.17 | 7.74 | 1.90 | -2.92 | 13.79 | -16.43 | 17.52 | 4.21 | -5.50 | 97.84 | 95.76 | 97.39 | 100.36 | 96.81 | 99.00 | 95.11 | 96.31 | 102.74 | 102.11 | Cell viability, HEK293T, Data2 [4]: 102.49; Cell viability, HEK293T, Data3 [4]: 103.63; Average cell viability, HUVEC [5]: 105.16; Cell viability, HUVEC, Data1 [5]: 113.12; Cell viability, HUVEC, Data2 [5]: 102.98; Cell viability, HUVEC, Data3 [5]: 99.39
3 | KGGEV [TaPep68] | 0.75 | -4.79 | 7.39 | 3.94 | -1.26 | 12.33 | -15.75 | 12.33 | 3.06 | -4.04 | 94.11 | 97.24 | 99.23 | 85.86 | 104.35 | 106.68 | 113.46 | 92.92 | 100.03 | 100.79 | Cell viability, HEK293T, Data2 [4]: 94.92; Cell viability, HEK293T, Data3 [4]: 104.38; Average cell viability, HUVEC [5]: 103.75; Cell viability, HUVEC, Data1 [5]: 103.54; Cell viability, HUVEC, Data2 [5]: 113.44; Cell viability, HUVEC, Data3 [5]: 94.28
4 | KGYEAV [TaPep5] | 1.93 | -5.17 | 7.90 | bitterness suppression and -0.10 | -4.04 | 12.61 | -18.14 | 14.26 | 6.12 | -5.63 | 113.38 | 117.83 | 109.17 | 113.13 | 113.59 | 105.38 | 117.75 | 117.65 | 97.32 | 101.17 | Cell viability, HEK293T, Data2 [4]: 95.30; Cell viability, HEK293T, Data3 [4]: 95.49; Average cell viability, HUVEC [5]: 105.38; Cell viability, HUVEC, Data1 [5]: 115.43; Cell viability, HUVEC, Data2 [5]: 105.06; Cell viability, HUVEC, Data3 [5]: 95.64
5 | KNDESVD [TaPep48] | 1.19 | -4.97 | 7.92 | 4.06 | -2.20 | 12.29 | -19.00 | 9.10 | 5.24 | -3.88 | 102.66 | 87.85 | 109.32 | 110.82 | 98.21 | 105.18 | 91.23 | 98.21 | 103.91 | 103.15 | Cell viability, HEK293T, Data2 [4]: 102.59; Cell viability, HEK293T, Data3 [4]: 105.99; Average cell viability, HUVEC [5]: 107.58; Cell viability, HUVEC, Data1 [5]: 110.24; Cell viability, HUVEC, Data2 [5]: 102.34; Cell viability, HUVEC, Data3 [5]: 110.16
6 | KTYSA [TaPep49] | 0.96 | -3.34 | 7.26 | 2.53 | -7.10 | 8.30 | -15.59 | 11.00 | 7.69 | -3.73 | 94.58 | 82.96 | 86.76 | 114.01 | 100.60 | 99.20 | 96.41 | 106.18 | 96.97 | 99.94 | Cell viability, HEK293T, Data2 [4]: 94.54; Cell viability, HEK293T, Data3 [4]: 96.44; Average cell viability, HUVEC [5]: 102.29; Cell viability, HUVEC, Data1 [5]: 99.15; Cell viability, HUVEC, Data2 [5]: 103.94; Cell viability, HUVEC, Data3 [5]: 103.78
7 | LGDDLVK [TaPep19] | 2.00 | -4.34 | 7.19 | 3.19 | -4.23 | 10.91 | -21.50 | 8.70 | 6.20 | -4.08 | 100.07 | 102.93 | 114.51 | 82.76 | 111.70 | 111.27 | 110.77 | 113.06 | 106.88 | 110.63 | Cell viability, HEK293T, Data2 [4]: 106.37; Cell viability, HEK293T, Data3 [4]: 103.63; Average cell viability, HUVEC [5]: 102.69; Cell viability, HUVEC, Data1 [5]: 92.52; Cell viability, HUVEC, Data2 [5]: 103.78; Cell viability, HUVEC, Data3 [5]: 111.76
8 | LGGDL [TaPep58] | 2.07 | -4.23 | 7.49 | 3.43 | -4.24 | 10.37 | -21.68 | 10.46 | 7.50 | -6.69 | 94.58 | 94.94 | 87.85 | 100.93 | 99.93 | 103.89 | 90.43 | 105.48 | 101.42 | 99.84 | Cell viability, HEK293T, Data2 [4]: 107.22; Cell viability, HEK293T, Data3 [4]: 97.19; Average cell viability, HUVEC [5]: 99.81; Cell viability, HUVEC, Data1 [5]: 89.41; Cell viability, HUVEC, Data2 [5]: 103.78; Cell viability, HUVEC, Data3 [5]: 106.25
9 | LNDVE [TaPep66] | 1.83 | -3.37 | 7.14 | 4.03 | -3.77 | 8.49 | -21.50 | 4.47 | 6.93 | -3.10 | 110.62 | 96.14 | 118.00 | 117.70 | 98.04 | 103.39 | 89.73 | 101.00 | 101.96 | 96.81 | Cell viability, HEK293T, Data2 [4]: 102.97; Cell viability, HEK293T, Data3 [4]: 106.09; Average cell viability, HUVEC [5]: 96.70; Cell viability, HUVEC, Data1 [5]: 88.85; Cell viability, HUVEC, Data2 [5]: 100.59; Cell viability, HUVEC, Data3 [5]: 100.67
